Assays:
[1] = tested on: markers of inflammation in blood; test: Markers of inflammation in blood (serum/plasma); assay type: in vivo, human; details: Day 32, geometric mean (%CV)
Experimental: (§1) Induced sputum was collected pre-dose on Day 1 of each treatment period (for the first treatment period, the sample could be collected up to 10 days prior to Day 1), and 2 h post-dose on Days 20, 26 and 32 (see the Additional file 1 for further detail on sputum and blood analysis methods). Blood samples were taken pre-dose on Day 1, and pre-dose and at 30 min, and 1, 1.5, 2, 3, 4, 6, 8 and 12 h post-dose on Day 32. Other pre-dose assessments on Days 1 and 32 were spirometry (forced expiratory volume in 1 s [FEV1] and forced vital capacity [FVC]), forced oscillometry, and COPD Assessment Test (CAT), with Baseline Dyspnea Index recorded on Day 1 and Transition Dyspnea Index (TDI) on Day 32. Central and peripheral airways mechanics were assessed using forced oscillometry, with the following values determined: inspiratory and expiratory resistance (at 5 and 19 Hz), inspiratory and expiratory reactance, tidal expiratory flow limitation and the percentage of flow limited breaths.
A patient had to have a minimum of one acceptable sputum sample on Day 20, 26 or 32 to be included in the sputum biomarker evaluation for that treatment period, with the available cell count and biomarker data averaged for each patient. The mean change from baseline (pre-dose on Day 1 of each treatment period) was then compared between treatments using an analysis of covariance (ANCOVA) that included treatment, patient and period as fixed effects, and baseline values as covariate. The mean change from baseline to Day 32 for biomarkers in blood were analysed using the same model as for sputum data. All data were log-transformed before analysis, and the results are presented as ratio of geometric means.
Effect of CHF6001 on inflammatory biomarkers – Additional file 1 […]
Analysis of biomarkers and CHF6001 concentration in blood
The levels of inflammatory biomarkers were evaluated from blood collected at 2 h post-dose […]
• Ex-vivo lipopolysaccharide (LPS) stimulated TNFα: 1.5 mL of blood collected into sodium heparin tubes was stimulated with 30 µL of LPS 5 µg/mL, incubated at 37C for 23 h, centrifuged at 2000 g for 10 min at 4C and plasma transferred to the central laboratory at –60 to –90C for analysis.
• Fibrinogen and MMP-3 and -9: Blood was collected into lithium heparin tubes, centrifuged at 2500 g for 15 min at 4C, and plasma transferred to the central […]
• IL-6, -16, and -18, CXCL8, TNFα, MCP-1, MIP 1β, club cell secretory protein 16 (CC16), C-reactive protein (CRP) and surfactant protein D (SP-D): Blood was collected into serum separator tubes and kept at room temperature for 30 –60 minutes to allow clotting. Samples were then centrifuged at 2000 g for 5 min at +4C and serum transferred to the central laboratory at –60 to –90C for analysis.
Levels of biomarkers were assessed as follows:
• Fibrinogen: K-Assay Fibrinogen kit, automated on the Beckman AU640 .
• IL-18, and MMP-3 and -9: PheraSTAR ELISA.
• IL-6, CXCL8, TNFα, MCP-1 and MIP-1β: Meso Scale Diagnostics v -PLEX Plus kit .
• CC16: Biovendor Elisa Kit, Oxford Biosystems.
• CRP: Randox Reagents, automated on the Beckman AU640 .
• IL-16: Meso Scale Diagnostics Sector Imager 6000.
• Serum SP-D: Sandwich Immunoassay, using PheraSTAR Plate Reader .
Validation procedures again followed those outlined for the analysis of biomarkers above. All […]
concentrations of biomarkers in human serum or plasma from regulatory studies.
Blood for the pharmacokinetic analysis was collected pre-dose and at 30 min, and 1, 1.5, 2, 3, 4, 6, 8 and 12 h post-dose on Day 32 of each treatment period. Samples were centrifuged at 2000 g for 15 min at 4C, with the resulting plasma shipped to the central laboratory at –60

patients with COPD = test: Forced oscillometry; assay type: in vivo, human; details: for Difference in inspiratory resistance (5-19Hz), adjusted mean difference vs placebo (95% CI) / Expiratory reactance (5 Hz), adjusted mean difference vs placebo (95% CI) / Expiratory resistance (5 Hz), adjusted mean difference vs placebo (95% CI) / Expiratory resistance (19 Hz), adjusted mean difference vs placebo (95% CI) / Inspiratory reactance (5 Hz), adjusted mean difference vs placebo (95% CI) / Inspiratory resistance (5 Hz), adjusted mean difference vs placebo (95% CI) / Inspiratory resistance (19 Hz), adjusted mean difference vs placebo (95% CI) / Percentage flow limited breaths, adjusted mean difference vs placebo (95% CI) / Tidal expiratory flow limitation, adjusted mean difference vs placebo (95% CI) / Total reactance (5 Hz), adjusted mean difference vs placebo (95% CI) / Total resistance (5 Hz), adjusted mean difference vs placebo (95% CI) / Total resistance (19 Hz), adjusted mean difference vs placebo (95% CI): change from baseline to Day 32
Experimental: as §1
The mean changes from baseline to Day 32 for lung function, CAT and TDI were analysed using similar methodology to sputum biomarkers, but were not log-transformed. […] The sputum concentration of CHF6001 was also evaluated at 2 h post-dose, using the mean of all values measured on Days 20, 26 and 32. Pharmacokinetic variables were summarised using geometric means and coefficients of variation, except for Tmax,ss, which is presented as median (range).

SMILES: CS(=O)(=O)Nc1ccc(C(=O)O[C@@H](Cc2c(Cl)c[n+]([O-])cc2Cl)c2ccc(OC(F)F)c(OCC3CC3)c2)cc1OCC1CC1 [CHF6001]
- C-X-C motif chemokine ligand 8 in blood, post-baseline ([1]; 800 µg BID): 13.565 (36.9)
- C-reactive protein in blood, post-baseline ([1]; 800 µg BID): 3.4462 (167.3) mg/L
- Club cell secretory protein 16 in blood, post-baseline ([1]; 800 µg BID): 4.6249 (67.5) ng/mL
- Fibrinogen in blood, post-baseline ([1]; 800 µg BID): 327.0 (47.5) mg/dL
- Interleukin 6 in blood, post-baseline ([1]; 800 µg BID): 1.8740 (63.9) pg/mL
- Interleukin 16 in blood, post-baseline ([1]; 800 µg BID): 183.95 (33.6) pg/mL
- Interleukin 18 in blood, post-baseline ([1]; 800 µg BID): 236.46 (43.0) pg/mL
- Macrophage inflammatory protein 1β in blood, post-baseline ([1]; 800 µg BID): 107.36 (35.2) pg/mL
- Matrix metalloproteinase 3 in blood, post-baseline ([1]; 800 µg BID): 19.356 (66.9) ng/mL
- Matrix metalloproteinase 9 in blood, post-baseline ([1]; 800 µg BID): 61.69 (88.4) ng/mL
- Monocyte chemotactic protein 1 in blood, post-baseline ([1]; 800 µg BID): 308.2 (33.3) pg/mL
- Serum surfactant protein D, post-baseline ([1]; 800 µg BID): 168.55 (67.6) ng/mL
- Tumour necrosis factor α in serum, post-baseline ([1]; 800 µg BID): 1.9453 (31.8) pg/mL
- C-X-C motif chemokine ligand 8 in blood, post-baseline ([1]; 1600 µg BID): 13.014 (42.2)
- C-reactive protein in blood, post-baseline ([1]; 1600 µg BID): 3.7389 (135.5) mg/L
- Club cell secretory protein 16 in blood, post-baseline ([1]; 1600 µg BID): 4.5701 (75.3) ng/mL
- Fibrinogen in blood, post-baseline ([1]; 1600 µg BID): 367.8 (54.2) mg/dL
- Interleukin 6 in blood, post-baseline ([1]; 1600 µg BID): 1.9386 (88.8) pg/mL
- Interleukin 16 in blood, post-baseline ([1]; 1600 µg BID): 178.08 (30.4) pg/mL
- Interleukin 18 in blood, post-baseline ([1]; 1600 µg BID): 252.43 (40.2) pg/mL
- Macrophage inflammatory protein 1β in blood, post-baseline ([1]; 1600 µg BID): 113.88 (44.2) pg/mL
- Matrix metalloproteinase 3 in blood, post-baseline ([1]; 1600 µg BID): 19.565 (53.9) ng/mL
- Matrix metalloproteinase 9 in blood, post-baseline ([1]; 1600 µg BID): 52.19 (89.7) ng/mL
- Monocyte chemotactic protein 1 in blood, post-baseline ([1]; 1600 µg BID): 323.6 (31.8) pg/mL
- Serum surfactant protein D, post-baseline ([1]; 1600 µg BID): 167.66 (66.1) ng/mL
- Tumour necrosis factor α in serum, post-baseline ([1]; 1600 µg BID): 1.9302 (35.7) pg/mL
- Difference in inspiratory resistance (5-19Hz), adjusted mean difference vs placebo (95% CI) (patients with COPD; 800 µg BID): –0.09 (–0.32 to 0.13) cmH2O/(L/s)
- Expiratory reactance (5 Hz), adjusted mean difference vs placebo (95% CI) (patients with COPD; 800 µg BID): 0.14 (–0.49 to 0.77) cmH2O/(L/s)
- Expiratory resistance (5 Hz), adjusted mean difference vs placebo (95% CI) (patients with COPD; 800 µg BID): –0.15 (–0.45 to 0.15) cmH2O/(L/s)
- Expiratory resistance (19 Hz), adjusted mean difference vs placebo (95% CI) (patients with COPD; 800 µg BID): –0.04 (–0.23 to 0.15) cmH2O/(L/s)
- Inspiratory reactance (5 Hz), adjusted mean difference vs placebo (95% CI) (patients with COPD; 800 µg BID): 0.18 (0.00 to 0.36) cmH2O/(L/s)
- Inspiratory resistance (5 Hz), adjusted mean difference vs placebo (95% CI) (patients with COPD; 800 µg BID): –0.07 (–0.33 to 0.20) cmH2O/(L/s)
- Inspiratory resistance (19 Hz), adjusted mean difference vs placebo (95% CI) (patients with COPD; 800 µg BID): 0.06 (–0.12 to 0.24) cmH2O/(L/s)
- Percentage flow limited breaths, adjusted mean difference vs placebo (95% CI) (patients with COPD; 800 µg BID): 0.95 (–8.51 to 10.41)
- Tidal expiratory flow limitation, adjusted mean difference vs placebo (95% CI) (patients with COPD; 800 µg BID): 0.03 (–0.56 to 0.63)
- Total reactance (5 Hz), adjusted mean difference vs placebo (95% CI) (patients with COPD; 800 µg BID): 0.13 (–0.30 to 0.56) cmH2O/(L/s)
- Total resistance (5 Hz), adjusted mean difference vs placebo (95% CI) (patients with COPD; 800 µg BID): –0.13 (–0.39 to 0.13) cmH2O/(L/s)
- Total resistance (19 Hz), adjusted mean difference vs placebo (95% CI) (patients with COPD; 800 µg BID): –0.00 (–0.18 to 0.17) cmH2O/(L/s)
- Difference in inspiratory resistance (5-19Hz), adjusted mean difference vs placebo (95% CI) (patients with COPD; 1600 µg BID): 0.05 (–0.18 to 0.27) cmH2O/(L/s)
- Expiratory reactance (5 Hz), adjusted mean difference vs placebo (95% CI) (patients with COPD; 1600 µg BID): 0.082 (–0.55 to 0.72) cmH2O/(L/s)
- Expiratory resistance (5 Hz), adjusted mean difference vs placebo (95% CI) (patients with COPD; 1600 µg BID): 0.21 (–0.09 to 0.52) cmH2O/(L/s)
- Expiratory resistance (19 Hz), adjusted mean difference vs placebo (95% CI) (patients with COPD; 1600 µg BID): 0.14 (–0.05 to 0.33) cmH2O/(L/s)
- Inspiratory reactance (5 Hz), adjusted mean difference vs placebo (95% CI) (patients with COPD; 1600 µg BID): 0.14 (–0.04 to 0.32) cmH2O/(L/s)
- Inspiratory resistance (5 Hz), adjusted mean difference vs placebo (95% CI) (patients with COPD; 1600 µg BID): 0.23 (–0.03 to 0.50) cmH2O/(L/s)
- Inspiratory resistance (19 Hz), adjusted mean difference vs placebo (95% CI) (patients with COPD; 1600 µg BID): 0.17 (–0.01 to 0.35) cmH2O/(L/s)
- Percentage flow limited breaths, adjusted mean difference vs placebo (95% CI) (patients with COPD; 1600 µg BID): –2.06 (–11.66 to 7.53)
- Tidal expiratory flow limitation, adjusted mean difference vs placebo (95% CI) (patients with COPD; 1600 µg BID): 0.05 (–0.55 to 0.65)
- Total reactance (5 Hz), adjusted mean difference vs placebo (95% CI) (patients with COPD; 1600 µg BID): 0.03 (–0.41 to 0.47) cmH2O/(L/s)
- Total resistance (5 Hz), adjusted mean difference vs placebo (95% CI) (patients with COPD; 1600 µg BID): 0.22 (–0.04 to 0.49) cmH2O/(L/s)
- Total resistance (19 Hz), adjusted mean difference vs placebo (95% CI) (patients with COPD; 1600 µg BID): 0.15 (–0.03 to 0.32) cmH2O/(L/s)
- Oscillometry parameters vs placebo (patients with COPD; either dose (800 or 1600 μg BID)): no consistent treatment–placebo differences

Reference: PMC6688371, “Effect of the inhaled PDE4 inhibitor CHF6001 on biomarkers of inflammation in COPD” (Respiratory Research, 2019)
